# Measured values as given in patent publication US8034572B2, “Receptor for GDNF family ligands” (priority 2006, dated 2011).
# How the values were obtained:
# [1] = target: T1, GDNF-syndecan-3 complex (UniProt P33671+P39905); experiment: Chemical cross-linking of ^125I-GDNF to C6 cells and immunoprecipitation with anti-syndecan-3; assay type: cell-based, rat; conditions: heparin 1 μg/ml; HB-GAM 150-fold molar excess; added with ^125I-GDNF
# T1 construct: the rat glioma C6 cell line, which expresses syndecan-3; endogenous in cells; host or cells: rat glioma C6 cells (syndecan-3); GDNF purchased from PeproTech or R&D Systems and iodinated
# T1 sequence (P33671 45-442, one chain of several): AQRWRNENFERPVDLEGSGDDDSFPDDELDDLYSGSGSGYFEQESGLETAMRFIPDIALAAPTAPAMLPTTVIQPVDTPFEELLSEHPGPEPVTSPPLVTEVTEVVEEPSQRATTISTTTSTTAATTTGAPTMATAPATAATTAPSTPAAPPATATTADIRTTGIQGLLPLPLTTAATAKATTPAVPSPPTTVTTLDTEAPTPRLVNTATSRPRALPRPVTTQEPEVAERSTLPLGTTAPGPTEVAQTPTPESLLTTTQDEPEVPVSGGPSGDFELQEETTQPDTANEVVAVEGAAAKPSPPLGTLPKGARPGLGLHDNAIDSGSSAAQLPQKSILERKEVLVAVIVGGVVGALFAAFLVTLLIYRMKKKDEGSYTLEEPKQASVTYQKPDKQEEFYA
# Method: Glioma C6 cells were plated on 6-well plates and grown to 70% confluency. Cells were incubated with 1 nM ^125I-GDNF for 2 hours in binding buffer (Dulbecco's modified Eagle's medium, 0.2% BSA and 15 mM Hepes, pH 7.2) on ice. Unbound ligand was removed by washing three times with ice-cold PBS. The chemical cross-linker ethyl-dimethyl-aminopropyl-carbodimide (EDAC) supplemented with N-hydroxysuccinimide (NHS) (Sigma) was incubated with cells for 20 min at room temperature in PBS. The reaction was quenched with TBS for 15 min and cells were lysed in lysis buffer (TBS, 1% Triton X-100, 1% NP-40, 2 mM EDTA, 1 mM PMSF and Complete protease inhibitor mixture from Roche Molecular Biochemicals). Cell lysates were immunoprecipitated with anti-syndecan-3 antibodies (Nolo et al., 1995) and resolved on 7.5% SDS-PAGE. Autoradiography was performed with BAS1500 (Fuji). For heparinase III or PI-PLC treatment cells were incubated with 10 mU/ml heparinase III or with 1 U/ml PI-PLC, respectively for one hour at 37° C., 5% CO2 before ^125I-GDNF addition.
# [2] = target: T2, GDNF (Homo sapiens, UniProt P39905); experiment: SPR: direct binding of heparin or desulfated heparins to GDNF cuvette; conditions: apparent Kd from equilibrium response, read-out: Kd1
# T2 construct: purchased PeproTech, Ltd. or R&D Systems, Inc
# T2 sequence (P39905 78-211 limits assumed): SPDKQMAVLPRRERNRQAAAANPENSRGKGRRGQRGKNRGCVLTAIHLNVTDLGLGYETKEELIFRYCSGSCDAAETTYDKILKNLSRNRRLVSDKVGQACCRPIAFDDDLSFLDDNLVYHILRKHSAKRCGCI
# Method: (§1) Specifically desulfated heparins (Takano et al., 1998) were used to assess the involvement of different sulfate groups in the GDNF-heparin interaction by following direct binding to GDNF cuvette, or by competing out GDNF binding to the heparin-BSA cuvette. Dissociation constants were determined from direct binding using increasing GDNF concentrations and by fitting the data to R=(Rmax*C)/(Kd+C) for heparin. For desulfated heparins, the best fit was achieved using equation R=(Rmax1*C)/(Kd1+C)+(Rmax2*C)/(Kd2+C), where Kd1 and Kd2 are apparent dissociation constants derived for two heparin sites of different affinities with maximum equilibrium response Rmax1 and Rmax2, respectively.
# [3] = coinfusion into rat striatum; cited from earlier work
# [4] = target: T2, GDNF; experiment: SPR: competition of GDNF binding to heparin-BSA cuvette by heparin and desulfated heparins; conditions: competing out GDNF binding to heparin-BSA cuvette
# Method: as §1
# [5] = target: T2, GDNF; experiment: Scintillation proximity assay: tritium labeled heparin binding to and displacement from GDNF; conditions: FIG. 11
# Excerpt: The scintillation proximity assay (SPA) technology (Amersham) was used to assay the ability of the low molecular weight molecule (namely low molecular weight heparin from Sigma) to displace tritium labeled heparin from GDNF.
# Small beads filled with scintillation liquid are covalently linked with anti-mouse antibodies that can capture mouse anti-FLAG-tag antibodies. In turn, GDNF that we produced by ourselves has a FLAG-tag on its N-terminus. Thus, GDNF is in close proximity to the scintillation beads. The tritium labeled high molecular weight heparin (a kind gift from Ulf Lindahl, Sweden) is administered in the surrounding solution. Labeled heparin binds GDNF, which is sitting on scintillation beads and induces light that is detected. […] This assay can be easily adopted to high-throughput format.
# To test the ability of small molecules to displace heparin or heparan sulfates from GDNF they are simply mixed at different concentrations with the labeled heparin and the decrease of the signal is monitored. It does positively correlate with the concentration of the cold heparin. We did it in our study with low molecular weight heparin and got IC50 of approximately 10 nM, which correlates with other binding data (FIG. 11).
Kd [2] [nM],IC50 [4] [ng/mL],IC50 [5] [nM],Substance,effect on ^125I-GDNF binding to syndecan-3 on C6 cells [1],"biodistribution of coinfused GDNF, NRTN or ARTN [3]"
9.5,0.06,–,heparin,abolished ^125I-GDNF binding to syndecan-3 almost completely,markedly increased their biodistribution
–,–,~10,low molecular weight heparin,–,–
